“And” between values parts separate entries of the source, which are not always exact repeats. Equal values may be shown once.
What was measured:
[1] = Ex vivo biodistribution in female Lewis rats; design: species or system rat
Text: Organs of blood, heart, lung, muscle, fat, pancreas, spleen, kidney, liver, thymus, brain, and bone were dissected and collected for counting. All the samples were counted with a dilution of the injectate on an automated well counter (Beckman Gamma 8000 well counter). Tissues were weighed and the uptake was reported as background and decay-corrected percent injected dose per gram (% ID/g).
The whole brains were quickly harvested and dissected into regions of cerebellum, brain stem, cortex, striatum, thalamus, and hippocampus, the remainder of the brain was also collected to determine the total brain uptake. Organs of blood, heart, lung, muscle, fat, pancreas, spleen, kidney, liver, thymus, and bone were also dissected and collected for counting. All the samples were counted with a dilution of the injectate on an automated well counter (Beckman Gamma 8000 well counter). Tissues were weighed and the uptake was reported as background and decay-corrected percent injected dose per gram (% ID/g).

[2] = Ex vivo autoradiography of [18F]22b in rat brain; conditions: male SD rat, 60 min post-injection
Procedure: Frozen slides were directly exposed to a BAS storage phosphor screen film (BAS-IP-MS-2025) in an imaging cassette (Fuji Photo Film Co., Tokyo, Japan) for 12 h at -80° C. under the dark. The distribution of radioactivity was visualized by a Fuji Bio-Imaging Analyzer FLA-7000 (Fuji Photo Film Co., Tokyo, Japan). […] E. Toman, S. Spiegel, Lysophospholipid receptors in the nervous system, Neurochem. Res. 27 (2002) 619-627; […]. Tanaka, J. Aoki, H. Arai, S. Noji, Expression patterns of the lysophospholipid receptor genes during mouse early development, Dev. Dyn. […] Cytochem. 58 (2010) 847-856).

S1P1 [3] = biological target: S1P1 (Mus musculus (Mouse), UniProt O08530); assay: In vitro autoradiography of [18F]22b in brain slices of LPS-treated mice, SEW2871 blocking; format: binding; conditions: brain sections of LPS-treated mice, ~6 nM tracer, 10 μM SEW2871, 60 min RT
Chain of S1P1 (Mus musculus (Mouse), UniProt O08530) (O08530 whole entry): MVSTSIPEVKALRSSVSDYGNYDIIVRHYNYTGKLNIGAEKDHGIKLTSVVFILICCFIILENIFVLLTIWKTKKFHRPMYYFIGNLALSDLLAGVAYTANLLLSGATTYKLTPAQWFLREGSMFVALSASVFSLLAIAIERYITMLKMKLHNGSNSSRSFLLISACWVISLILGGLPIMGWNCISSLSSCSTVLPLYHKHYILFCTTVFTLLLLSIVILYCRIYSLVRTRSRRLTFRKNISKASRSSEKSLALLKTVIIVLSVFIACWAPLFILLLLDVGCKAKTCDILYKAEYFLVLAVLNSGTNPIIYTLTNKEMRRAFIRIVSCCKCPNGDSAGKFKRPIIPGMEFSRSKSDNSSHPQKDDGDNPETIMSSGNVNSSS
Procedure: To confirm the binding specificity of [^18F]22b toward S1P1, in vitro autoradiography studies were performed using mouse brain slices that generated from LPS-induced murine neuroinflammation model, a widely used model for neuroinflammation, and the expression of S1P1 was activated in the mouse brain following the LPS injection according to the report (M. Kono, E. G. Conlon, S. Y. Lux, K. Yanagida, T. Hla, R. L. Proia, Bioluminescence imaging of G protein-coupled receptor activation in living mice, Nat. Commun. 8 (2017) 1163). Adult male C57BL/6 mice (20-25 g, Charles River Inc., Frederick, Md.) were used to generate LPS-induced neuroinflammation murine model. The mice (n=2) received an intraperitoneal injection of LPS from E. coli 055:65 (Sigma-Aldrich, St. Louis, Mo., USA) in saline (3 mg/mL) at dose of 15 mg/kg (5 mL/kg) and then euthanized at 24 h post-injection. Mouse brains were collected and cut into 20 μm sequential sections using a Microm cryotome and mounted on glass slides. […] The distribution of radioactivity was visualized by a Fuji Bio-Imaging Analyzer FLA-7000 (Fuji Photo Film, Tokyo, Japan). Photo-stimulated luminescence (PSL) from the brain slices was quantified using Multi Gauge v3.0 software (Fuji Photo Film Co., Tokyo, Japan). Data were background-corrected, and expressed as photo-stimulated luminescence signals per square millimeter (PSL/mm^2).

S1P1 [4] = biological target: S1P1 (Rattus norvegicus (Rat), UniProt P48303); assay: MicroPET and tracer kinetic modeling in EAE rat model, lumbar spinal cord; format: in vivo
Chain of S1P1 (Rattus norvegicus (Rat), UniProt P48303) (P48303 whole entry): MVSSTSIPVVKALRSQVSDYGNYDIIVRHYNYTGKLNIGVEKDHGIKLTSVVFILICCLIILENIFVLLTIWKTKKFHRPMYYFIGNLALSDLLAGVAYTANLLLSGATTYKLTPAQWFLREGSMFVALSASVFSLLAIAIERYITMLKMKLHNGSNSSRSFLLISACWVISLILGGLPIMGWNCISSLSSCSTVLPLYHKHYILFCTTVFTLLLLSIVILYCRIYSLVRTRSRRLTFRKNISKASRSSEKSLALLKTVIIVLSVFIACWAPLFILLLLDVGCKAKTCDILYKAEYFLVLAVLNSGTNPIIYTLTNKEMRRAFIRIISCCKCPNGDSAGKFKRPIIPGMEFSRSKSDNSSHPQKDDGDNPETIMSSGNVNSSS
Procedure: MicroPET scans were performed using an Inveon PET/CT system (Siemens Inc., Knoxville, Tenn.). […] Each rat was secured to a custom-designed acrylic bed equipped with a nosecone for gas anesthesia. PET/CT scans were conducted under 1.5-2% isoflurane anesthesia with the rat placed in transaxial position and centered with the T13 vertebral spine in the field of view. […] A list mode protocol was used with 60-min dynamic data acquisition.
PET image data was processed using filter back projection algorithm with attenuation and scatter corrections. The data were reconstructed per time frame employing an iterative reconstructional algorithm (three-dimensional ordered subset expectation maximization (3D-OSEM), maximum a posteriori (MAP)) and corrected for decay, random coincidences, scatter, and attenuation. […] Image data was analyzed using Inveon Research Workstation software IRW 4.2 (Siemens Inc., Knoxville, Tenn.). The regions of interest (ROI), the lumbar spinal cord and bilateral common carotid arteries, were drawn over the co-registered PET/CT images using the standard protocol published previously. Time-activity curves (TACs) were obtained and were expressed as % ID/g. A two-tailed t-test was used for the comparison of the tracer uptake in EAE rat lumbar spinal cord versus sham. A P value less than 0.05 was considered statistically significant. Time-activity curves were further analyzed using 2-tissue-compartment model (2TCM), as well as Logan graphical analysis, using the ROI over bilateral common carotid arteries for image-based arterial blood input function.

SMILES: OCc1cn(Cc2ccc(-c3noc(-c4ccc(OCC[18F])c(C(F)(F)F)c4)n3)cc2)nn1 [[^18F]22b]
- Tissue uptake, Blood ([1]; 5 min p.i., n = 4): 0.49 % ID/g and 0.49 ± 0.07 % ID/g
- Tissue uptake, Blood ([1]; 30 min p.i., n = 4): 0.42 ± 0.05 % ID/g
- Tissue uptake, Blood ([1]; 60 min p.i., n = 4): 0.36 ± 0.02 % ID/g
- Tissue uptake, Blood ([1]; 120 min p.i., n = 4): 0.35 ± 0.01 % ID/g
- Tissue uptake, Bone ([1]; 5 min p.i., n = 4): 0.55 % ID/g and 0.55 ± 0.05 % ID/g
- Tissue uptake, Bone ([1]; 30 min p.i., n = 4): 0.45 ± 0.03 % ID/g
- Tissue uptake, Bone ([1]; 60 min p.i., n = 4): 0.45 ± 0.01 % ID/g
- Tissue uptake, Bone ([1]; 120 min p.i., n = 4): 0.51 ± 0.05 % ID/g
- Tissue uptake, Brain ([1]; 5 min p.i., n = 4): 0.49 % ID/g and 0.49 ± 0.04 % ID/g
- Tissue uptake, Brain ([1]; 30 min p.i., n = 4): 0.57 % ID/g and 0.57 ± 0.02 % ID/g
- Tissue uptake, Brain ([1]; 60 min p.i., n = 4): 0.71 % ID/g and 0.71 ± 0.03 % ID/g
- Tissue uptake, Brain ([1]; 60 min p.i., n = 4, listed as 18F-TZ43113): 0.71 % ID/g
- Tissue uptake, Brain ([1]; 120 min p.i., n = 4): 0.61 % ID/g and 0.61 ± 0.05 % ID/g
- Tissue uptake, Fat ([1]; 5 min p.i., n = 4): 0.51 % ID/g and 0.51 ± 0.22 % ID/g
- Tissue uptake, Fat ([1]; 30 min p.i., n = 4): 0.62 ± 0.10 % ID/g
- Tissue uptake, Fat ([1]; 60 min p.i., n = 4): 0.69 ± 0.07 % ID/g
- Tissue uptake, Fat ([1]; 120 min p.i., n = 4): 0.57 ± 0.07 % ID/g
- Tissue uptake, Heart ([1]; 5 min p.i., n = 4): 1.65 % ID/g and 1.65 ± 0.27 % ID/g
- Tissue uptake, Heart ([1]; 30 min p.i., n = 4): 1.19 % ID/g and 1.19 ± 0.06 % ID/g
- Tissue uptake, Heart ([1]; 60 min p.i., n = 4): 1.05 ± 0.08 % ID/g
- Tissue uptake, Heart ([1]; 120 min p.i., n = 4): 0.94 ± 0.06 % ID/g
- Tissue uptake, Kidney ([1]; 5 min p.i., n = 4): 3.43 % ID/g and 3.43 ± 0.31 % ID/g
- Tissue uptake, Kidney ([1]; 30 min p.i., n = 4): 2.11 % ID/g and 2.11 ± 0.08 % ID/g
- Tissue uptake, Kidney ([1]; 60 min p.i., n = 4): 1.91 ± 0.10 % ID/g
- Tissue uptake, Kidney ([1]; 120 min p.i., n = 4): 1.62 ± 0.09 % ID/g
- Tissue uptake, Liver ([1]; 5 min p.i., n = 4): 5.69 % ID/g and 5.69 ± 0.60 % ID/g
- Tissue uptake, Liver ([1]; 30 min p.i., n = 4): 4.30 % ID/g and 4.30 ± 0.37 % ID/g
- Tissue uptake, Liver ([1]; 60 min p.i., n = 4): 4.21 ± 0.21 % ID/g
- Tissue uptake, Liver ([1]; 120 min p.i., n = 4): 3.66 ± 0.14 % ID/g
- Tissue uptake, Lung ([1]; 5 min p.i., n = 4): 2.79 % ID/g and 2.79 ± 0.57 % ID/g
- Tissue uptake, Lung ([1]; 30 min p.i., n = 4): 1.96 % ID/g and 1.96 ± 0.07 % ID/g
- Tissue uptake, Lung ([1]; 60 min p.i., n = 4): 1.67 ± 0.09 % ID/g
- Tissue uptake, Lung ([1]; 120 min p.i., n = 4): 1.54 ± 0.07 % ID/g
- Tissue uptake, Muscle ([1]; 5 min p.i., n = 4): 0.39 % ID/g and 0.39 ± 0.04 % ID/g
- Tissue uptake, Muscle ([1]; 30 min p.i., n = 4): 0.59 ± 0.05 % ID/g
- Tissue uptake, Muscle ([1]; 60 min p.i., n = 4): 0.51 ± 0.02 % ID/g
- Tissue uptake, Muscle ([1]; 120 min p.i., n = 4): 0.47 ± 0.02 % ID/g
- Tissue uptake, Pancreas ([1]; 5 min p.i., n = 4): 1.96 % ID/g and 1.96 ± 0.56 % ID/g
- Tissue uptake, Pancreas ([1]; 30 min p.i., n = 4): 1.89 ± 0.16 % ID/g
- Tissue uptake, Pancreas ([1]; 60 min p.i., n = 4): 1.52 ± 0.25 % ID/g
- Tissue uptake, Pancreas ([1]; 120 min p.i., n = 4): 1.45 ± 0.15 % ID/g
- Tissue uptake, Spleen ([1]; 5 min p.i., n = 4): 2.22 % ID/g and 2.22 ± 0.23 % ID/g
- Tissue uptake, Spleen ([1]; 30 min p.i., n = 4): 1.36 % ID/g and 1.36 ± 0.04 % ID/g
- Tissue uptake, Spleen ([1]; 60 min p.i., n = 4): 1.27 ± 0.08 % ID/g
- Tissue uptake, Spleen ([1]; 120 min p.i., n = 4): 1.14 ± 0.10 % ID/g
- Tissue uptake, Thymus ([1]; 5 min p.i., n = 4): 0.69 % ID/g and 0.69 ± 0.08 % ID/g
- Tissue uptake, Thymus ([1]; 30 min p.i., n = 4): 0.83 ± 0.07 % ID/g
- Tissue uptake, Thymus ([1]; 60 min p.i., n = 4): 0.82 ± 0.04 % ID/g
- Tissue uptake, Thymus ([1]; 120 min p.i., n = 4): 0.78 ± 0.05 % ID/g
- Defluorination in vivo (bone uptake 5 to 120 min) ([1]; bone radioactivity unchanged): no defluorination in vivo
- Regional brain uptake, brain stem ([1]; brain stem, 5 min p.i.): 0.50 ID %/g
- Regional brain uptake, cerebellum ([1]; cerebellum, 5 min p.i.): 0.53 ID %/g
- Regional brain uptake, cortex ([1]; cortex, 5 min p.i.): 0.59 ID %/g
- Regional brain uptake, hippocampus ([1]; hippocampus, 5 min p.i.): 0.43 ID %/g
- Time of maximum brain uptake ([1]; post injection): 60 min
- Regional brain uptake, striatum ([1]; striatum, 5 min p.i.): 0.47 ID %/g
- Regional brain uptake, thalamus ([1]; thalamus, 5 min p.i.): 0.46 ID %/g
- Blood-brain barrier crossing, rat brain [2]: able to cross the BBB
- Reduction of tracer uptake by SEW2871 blocking (S1P1 [3]): ~36%
- Visualization of rat lumbar spinal cord by microPET (S1P1 [4]; EAE and sham rats): not high enough for clear visualization
- Tracer uptake in lumbar spinal cord, EAE (S1P1 [4]; EAE rats, summed % ID/g value, 10-60 min post injection, n=4): 0.47±0.05 % ID/g
- Increase of tracer uptake in EAE rat lumbar spinal cord compared with shams (S1P1 [4]; microPET, 10-60 min post injection, listed as 18F-TZ43113): ~37% and 36.7%
- Tracer uptake in sham rat spinal cord (TAC) (S1P1 [4]; sham rats, 10-60 min post injection): approximately 0.35 % ID/g
- Tracer uptake in lumbar spinal cord, sham (S1P1 [4]; sham rats, summed % ID/g value, 10-60 min post injection, n=4): 0.34±0.05 % ID/g
